Test results reported in patent US20080039482A1, “SULFONAMIDO-MACROCYCLES AS TIE2 INHIBITORS AND SALTS THEREOF, PHARMACEUTICAL COMPOSITIONS COMPRISING SAME, METHODS OF PREPARING SAME AND USES OF SAME” (priority 2006, published 2008).

Legend:
[1] = target: T1, CDK2/CycE (Homo sapiens, UniProt P24941); assay: CDK2 HTRF assay (assay 4); type: biochemical; details: IC50 assay 4/IC50 assay 2
T1 construct: GST; purchased ProQinase GmbH (Freiburg, Germany); host or cells: insect cells (Sf9)
Source text: CDK2/CycE-inhibitory activity of compounds of the present invention was quantified employing the CDK2/CycE HTRF assay as described in the following paragraphs.
Recombinant fusion proteins of GST and human CDK2 and of GST and human CycE, expressed in insect cells (Sf9) and purified by Glutathion-Sepharose affinity chromatography, were purchase from ProQinase GmbH (Freiburg, Germany). As substrate for the kinase reaction biotinylated peptide biotin-Ttds-YISPLKSPYKISEG (C-terminus in amid form) was used which can be purchased e.g. form the company JERINI peptide technologies (Berlin, Germany).
CDK2/CycE was incubated for 60 min at 22° C. in the presence of different concentrations of test compounds in 5 μl assay buffer [50 mM Tris/HCl pH 8.0, 10 mM MgCl2, 1.0 mM dithiothreitol, 0.1 mM sodium ortho-vanadate, 10 μM adenosine-tri-phosphate (ATP), 0.75 μM substrate, 0.01% (v/v) Nonidet-P40 (Sigma), 1% (v/v) dimethylsulfoxide]. The concentration of CDK2/CycE was adjusted depending of the activity of the enzyme lot and was chosen appropriate to have the assay in the linear range, typical concentrations were in the range of 1 ng/ml. The reaction was stopped by the addition of 5 μl of a solution of HTRF detection reagents (0.2 μM streptavidine-XLent and 3.4 nM Phospho-(Ser) CDKs Substrate Antibody [product #2324B, Cell Signalling Technology, Danvers, Mass., USA} and 4 nM Prot-A-EuK [Protein A labeled with Europium Cryptate from Cis biointernational, France, product no. 61PRAKLB]) in an aqueous EDTA-solution (100 mM EDTA, 800 mM KF, 0.2% (w/v) bovine serum albumin in 100 mM HEPES/NaOH pH 7.0).

[2] = target: T2, Aurora-C (Homo sapiens, UniProt Q9UQB9); assay: Aurora C HTRF assay (assay 5); type: biochemical; details: IC50 assay 5/IC50 assay 2
T2 construct: GST; made in house; host or cells: HEK293 (the text adds '(Sf9)', which contradicts this)
T2 sequence (Q9UQB9 1-309): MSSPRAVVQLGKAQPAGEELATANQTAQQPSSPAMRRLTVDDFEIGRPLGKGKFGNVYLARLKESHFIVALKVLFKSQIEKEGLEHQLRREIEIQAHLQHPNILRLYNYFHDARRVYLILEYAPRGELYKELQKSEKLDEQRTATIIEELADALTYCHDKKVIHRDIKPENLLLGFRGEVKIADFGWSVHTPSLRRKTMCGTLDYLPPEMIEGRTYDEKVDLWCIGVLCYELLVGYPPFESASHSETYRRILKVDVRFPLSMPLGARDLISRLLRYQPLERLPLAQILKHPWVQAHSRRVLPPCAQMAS
Source text: Assay 5: Aurora C HTRF Assay
Aurora-C inhibitory activity of compounds of the present invention was quantified employing the Aurora-C HTRF assay as described in the following paragraphs.
Recombinant fusion protein of GST and human Aurora-C was expressed in transiently transfected HEK293 cells (Sf9) and purified by Glutathion-Sepharose affinity chromatography. As substrate for the kinase reaction biotinylated peptide biotin-Ttds-FMRLRRLSTKYRT (C-terminus in amid form) was used which can be purchased e.g. form the company JERINI peptide technologies (Berlin, Germany). Aurora-C was incubated for 60 min at 22° C. in the presence of different concentrations of test compounds in 5 μl assay buffer [25 mM Hepes/NaOH pH 7.4, 0.5 mM MnCl2, 2.0 mM dithiothreitol, 0.1 mM sodium ortho-vanadate, 10 μM adenosine-tri-phosphate (ATP), […] substrate, 0.01% (v/v) TritonX-100 (Sigma), 0.05% (w/v) bovine serum albumin, 1% (v/v) dimethylsulfoxide]. The concentration of Aurora-C was adjusted depending of the activity of the enzyme lot and was chosen appropriate to have the assay in the linear range, typical concentrations were in the range of 0.3 nM. The reaction was stopped by the addition of 5 μl of a solution of HTRF detection reagents (0.2 μM streptavidine-XLent and 1.4 nM Anti-Phospho-(Ser/Thr) Akt substrate-Cryptate (Cis biointernational, France, product no. 61P02KAE), a labeled Phospho-(Ser/Thr) Akt substrate antibody [product #9611B, Cell Signalling Technology, Danvers, Mass., USA] labeled with Europium Cryptate, in an aqueous EDTA-solution (40 mM EDTA, 400 mM KF, 0.05% (w/v) bovine serum albumin in 25 mM HEPES/NaOH pH 7.0).
The resulting mixture was incubated 1 h at 22° C. to allow the binding of the biotinylated phosphorylated peptide to the streptavidine-XLent and the Anti-Phospho-(Ser/Thr) Akt substrate-Cryptate. Subsequently the amount of phosphorylated substrate was evaluated by measurement of the resonance energy transfer from the Prot-A-EuK to the streptavidine-XLent. Therefore, the fluorescence emissions at 620 nm and 665 nm after excitation at 350 nm was measured in a HTRF reader, e.g. a Rubystar (BMG Labtechnologies, Offenburg, Germany) or a Viewlux (Perkin-Elmer). The ratio of the emissions at 665 nm and at […] was taken as the measure for the amount of phosphorylated substrate. The data were normalised (enzyme reaction without inhibitor=0% inhibition, all other assay components but no enzyme=100% inhibition) and IC50 values were calculated by a 4 parameter fit using an inhouse software.

Row | Compound | Selectivity vs. CDK2 [1] [fold] | Selectivity vs. Aurora C [2] [fold]
1 | Cc1ccc(C2(C(=O)Nc3ccc(-c4cnc5nc4NCCCNS(=O)(=O)c4cccc(c4)N5)cc3)CC2)cc1 [Example 1, 1-p-Tolyl-cyclopropane-carboxylic acid [4-(13,13-dioxo-13λ^6-thia-2,4,8,12,19-pentaaza-tricyclo[12.3.1.1^3,7]nonadeca-1(18),3(19),4,6, 14,16-hexaen-6-yl)-phenyl]-amide] | >20 | >20
2 | Cc1ccccc1C1(C(=O)Nc2ccc(-c3cnc4nc3NCCCNS(=O)(=O)c3cccc(c3)N4)cc2)CC1 [Example 2, 1-o-Tolyl-cyclopropane-arboxylic acid [4-(13,13-dioxo-13λ^6-thia-2,4,8,12,19-pentaaza-tricyclo[12.3.1.1^3,7]nonadeca-1(18),3(19),4,6,14,16-hexaen-6-yl)-phenyl]-amide] | >20 | >20
3 | COc1ccc(C2(C(=O)Nc3ccc(-c4cnc5nc4NCCCNS(=O)(=O)c4cccc(c4)N5)cc3)CC2)cc1 [Example 4, 1-(4-Methoxy-phenyl)-cyclopropane-carboxylic acid [4-(13,13-dioxo-13λ^6-thia-2,4,8,12,19-pentaaza-tricyclo[12.3.1.1^3,7]-nonadeca-1(18),3(19),4,6,14,16-hexaen-6-yl)-phenyl]-amide] | >20 | >20
4 | O=C(Nc1ccc(-c2cnc3nc2NCCCNS(=O)(=O)c2cccc(c2)N3)cc1)C1(c2ccccc2F)CC1 [Example 7, 1-(2-Fluoro-phenyl)-cyclopropane-carboxylic acid [4-(13,13-dioxo-13λ^6-thia-2,4,8,12,19-pentaaza-tricyclo[12.3.1.1^3,7]nonadeca-1(18),3(19),4,6,14,16-hexaen-6-yl)-phenyl]-amide] | >20 | >20
5 | COc1cccc(C2(C(=O)Nc3ccc(-c4cnc5nc4NCCCNS(=O)(=O)c4cccc(c4)N5)cc3)CC2)c1 [Example 3, 1-(3-Methoxy-phenyl)-cyclopropane-carboxylic acid [4-(13,13-dioxo-13λ^6-thia-2,4,8,12,19-pentaaza-tricyclo[12.3.1.1^3,7]nonadeca-1(18),3(19),4,6,14,16-hexaen-6-yl)-phenyl]-amide] | >20 | >20
6 | O=C(Nc1ccc(-c2cnc3nc2NCCCNS(=O)(=O)c2cccc(c2)N3)cc1)C1(c2ccc(Cl)cc2)CC1 [Example 6, 1-(4-Chloro-phenyl)-cyclopropane-carboxylic acid [4-(13,13-dioxo-13λ^6-thia-2,4,8,12,19-pentaaza-tricyclo[12.3.1.1^3,7]-nonadeca-1(18),3(19),4,6,14,16-hexaen-6-yl)-phenyl]-amide] | >20 | >20
7 | O=C(Nc1ccc(-c2cnc3nc2NCCCNS(=O)(=O)c2cccc(c2)N3)cc1)C1(c2cccc(Cl)c2)CC1 [Example 5, 1-(3-Chloro-phenyl)-cyclopropane-arboxylic acid [4-(13,13-dioxo-13λ^6-thia-2,4,8,12,19-pentaaza-tricyclo[12.3.1.1^3,7]-nadeca-1(18),3(19),4,6,14,16-hexaen-6-yl)-phenyl]-amide] | >20 | >20
8 | CC(C)(C(=O)Nc1ccc(-c2cnc3nc2NCCCNS(=O)(=O)c2cccc(c2)N3)cc1)c1ccc(Cl)cc1 [Example 13, 2-(4-Chloro-phenyl)-N-[4-(13,13-dioxo-13λ^6-thia-2,4,8,12,19-pentaaza-tricyclo[12.3.1.1^3,7]-nonadeca-1(18),3(19),4,6,14,16-hexaen-6-yl)-phenyl]-isobutyramide] | >20 | >20
9 | O=C(Nc1ccc(-c2cnc3nc2NCCCNS(=O)(=O)c2cccc(c2)N3)cc1)C1(c2ccc(F)cc2)CC1 [Example 9, 1-(4-Fluoro-phenyl)-cyclopropane-carboxylic acid [4-(13,13-dioxo-13λ^6-thia-2,4,8,12,19-pentaaza-tricyclo[12.3.1.1^3.7]nonadeca-1(18),3(19),4,6,14,16-hexaen-6-yl)-phenyl]-amide] | >20 | >20
10 | O=C(Nc1ccc(-c2cnc3nc2NCCCNS(=O)(=O)c2cccc(c2)N3)cc1)C1(c2cccc(F)c2)CC1 [Example 8, 1-(3-Fluoro-phenyl)-cyclopropane-carboxylic acid [4-(13,13-dioxo-13λ^6-thia-2,4,8,12,19-pentaaza-tricyclo[12.3.1.1^3,7]nonadeca-1(18),3(19),4,6,14,16-hexaen-6-yl)-phenyl]-amide] | >20 | >20
11 | O=C(Nc1ccc(-c2cnc3nc2NCCCNS(=O)(=O)c2cccc(c2)N3)cc1)C1(c2cc(C(F)(F)F)ccc2F)CC1 [Example 12, 1-(2-Fluoro-5-trifluoromethyl-phenyl)-cyclopropane-carboxylic acid [4-(13,13-dioxo-13λ^6-thia-2,4,8,12,19-pentaaza-tricyclo[12.3.1.1^3,7]-nonadeca-1(18),3(19),4,6,14,16-hexaen-6-yl)-phenyl]-amide] | >20 | >20
12 | O=C(Nc1ccc(-c2cnc3nc2NCCCNS(=O)(=O)c2cccc(c2)N3)cc1)C1(c2cccc(C(F)(F)F)c2)CC1 [Example 10, 1-(3-Trifluoromethyl-phenyl)-cyclopropane-carboxylic acid [4-(13,13-dioxo-13λ^6-thia-2,4,8,12,19-pentaaza-tricyclo[12.3.1.1^3,7]nonadeca-1(18),3(19),4,6,14,16-hexaen-6-yl)-phenyl]-amide] | >20 | >20
13 | O=C(Nc1ccc(-c2cnc3nc2NCCCNS(=O)(=O)c2cccc(c2)N3)cc1)C1(c2ccc(C(F)(F)F)cc2)CC1 [Example 11, 1-(4-Trifluoromethyl-phenyl)-cyclopropane-carboxylic acid [4-(13,13-dioxo-13λ^6-thia-2,4,8,12,19-pentaaza-tricyclo[12.3.1.1^3,7]nonadeca-1(18),3(19),4,6,14,16-hexaen-6-yl)-phenyl]-amide] | >20 | >20
